From patent publication US20080045463A1, “Methods For Lowering Hif-1 Mediated Gene Expression” (priority 2004, published 2008)

How the values were obtained:
HPH [1] = assay: HPH activity in extracts of treated U251 cells (35S-pVHL pulldown); format: cell-based, human
Protocol: (§1) Human HPH-1,2,3 and VHL pcDNA3.1/V5-HIS vectors (kindly provided by R. Bruick) were used for TNT Coupled Reticulocyte Lysate in vitro transcription/translation (Promega). Cytoplasmic extract for HPH activity was made by lysing cell pellets in assay buffer (20 mM Tris, pH 7.5, 5 mM KCl, 1.5 mM MgCl2, and 1 mM DTT) at 4° C. using a homogenizer, centrifuging at 20,000 g for 15 minutes and collecting supernatant for the assay. HPH enzymatic reactions were performed as previously described using either IVT products or cell extracts. This assay, chosen for its specificity for the HPH reaction, was linear over 30 minutes. For each reaction, either 7.5 μL of IVT products or 100 μg of cell extract protein were used as source of the enzyme. Activity was measured by either quantitative scintillation counting or by autoradiography after gel electrophoresis on a 10-20% Tris Glycine gradient gel (Invitrogen).
To test this U251 cells was exposed to glucose-free Krebs buffer to either hypoxia (1% O2) or 2 mM pyruvate for four hours. Nuclear HIF-1α protein accumulation was induced by both treatments (FIG. 6A). Then the cells were either returned to 21% O2 or the pyruvate was removed by extensively washing with glucose-free Krebs buffer. […]

HIF-1α [2] = assay: HIF-1α hydroxyproline detection in U251 whole cell extracts; format: cell-based, human; settings: U251, four hours, antibody to hydroxylated ODD region
Protocol: (§2) Protein extraction, western blot analysis, and immunocytochemistry were performed as previously described. Mouse monoclonal anti-HIF-1α antibodies were 610958 (BD Biosciences), and NB100-123 (Novus). Mouse monoclonal anti-GFP antibody was 1814460 (Roche). Mouse monoclonal anti-β-actin antibody was ab6276-100 (Abcam). Dimethyloxalylglycine was D1070 (Frontier Scientific). All other chemicals were from Sigma. Antibodies recognizing HPH homologues were from Novus biologicals and the antisera recognizing […] of HIF-1α was kindly provided by R. Freeman.
Some reactive oxygen species can also induce HIF-1α. […] Next, attention was focused on HIF-1α proline hydroxylation as a target for 2-oxoacids.

HPH [3] = assay: 2-Oxoglutarate: HPH binding assay; design: species or system human; settings: addition of 200 μM ferrous iron
Protocol: Gel was washed four times with the indicated buffer. Analysis of HPH binding was measured by scintillation counting.

HIF-1α [4] = assay: HIF-1α accumulation in 22B head and neck cancer cells; format: cell-based, human; settings: 22B cells, 100 μM each, last 30 minutes after 24 hours accumulation
Protocol: (§3) Human U87, U251, U251-HRE (20) and U373 glioma cells were cultured in Eagle's MEM medium (Mediatech). DU145 human prostate cancer cells and 022 human head and neck cancer cells were cultured in RPMI 1640 medium (Sigma). 22B Human head and neck cancer cells were cultured in high glucose DMEM (Gibco) containing 2 mM glutamine. C6 ODD-GFP rat glioma cells were cultured in high glucose DMEM with 1.5 mg/ml G418. All culture media were supplemented with 10% fetal bovine serum and 1% (v/v) penicillin/streptomycin. Rat C6 glioma cells were cultured in high glucose DMEM. For cell hypoxia treatment, the culture dishes were sealed in a modular incubator chamber, flushed with gas containing 1% O2, 5% CO2 and 94% N2 for 5 minutes, and incubated in this environment at 37° C. for indicated times.
as §2

HIF-1α [5] = assay: HIF-1α decay after washout of inducer; format: cell-based, human; settings: 100 μM each
Protocol: as §3, §2
To test this U251 cells was exposed to glucose-free Krebs buffer to either hypoxia (1% O2) or 2 mM pyruvate for four hours. Nuclear HIF-1α protein accumulation was induced by both treatments (FIG. 6A). […] HIF-1α immunoreactivity disappeared rapidly upon reoxygenation (return to 21% O2) of hypoxic cells as would be expected with the resumption of oxygen-dependent HIF-1α hydroxylation and proteolysis. […] To directly determine if the HPH activity in glioma cells was reversibly inactivated by pyruvate and oxaloacetate the ^35S-pVHL pulldown assay to measure HPH activity in extracts from cells treated for four hours with the 2-oxoacids was used. To capture the endogenous state of HPH activity, the cell extracts were first assayed without supplementation with exogenous reductants, ascorbate, or iron. […] The minimal HPH activity of extracts from pyruvate or oxaloacetate treated cells could also be restored by supplementation of the extracts with ascorbate or with exogenous ferrous iron (FeSO4) during the assay (FIG. 6D).

HIF-1α [6] = assay: Nuclear HIF-1α accumulation in human cancer cell lines (western blot); format: cell-based
Protocol: as §3, with “DU145 human prostate cancer cells and 022 human head and neck cancer cells were cultured in RPMI 1640 medium (Sigma).” left out
Protein extraction, western blot analysis, and immunocytochemistry were performed as previously described. […] Mouse monoclonal anti-β-actin antibody was ab6276-100 (Abcam). Dimethyloxalylglycine was D1070 (Frontier Scientific). All other chemicals were from Sigma.

[7] = system: labile intracellular iron pool; assay: Calcein fluorescence assay for cellular free iron; format: cell-based, human; settings: calcein loaded U251 cells
Protocol: The ability of 2-oxoacids to chelate the labile intracellular iron pool was measured using the calcein fluorescence assay as previously described. The iron chelators desferrioxamine and bipyridyl were used as positive controls.

VEGF and GLUT3 = assay: RT-PCR of HIF-1 regulated genes in U87 cells; format: cell-based, human; settings: U87, 5× the level normally found in MEM, 2 d
Protocol: Total RNA was isolated using the RNeasy kit (Qiagen). For RT-PCR, 1 μg of total RNA was used with the […] One-Step System (Invitrogen). VEGF, GLUT3, and β-Actin primers were described previously. For quantitative PCR analysis, the iQ SY BR Green Supermix and MyiQ Single-Color

ODD-GFP = assay: Live cell assay for oxygen-dependent degradation, ODD-GFP transfected C6 glioma cells; format: cell-based, rat; settings: C6 cells in Krebs buffer; amino acids 0.5 mM
Protocol: as §3
Next a live cell assay for oxygen-dependent HIF-1α degradation using C6 rat glioma cells that had been stably transfected with a vector encoding the HIF-1 cc ODD region fused to GFP (ODD-GFP) was performed. The ODD-GFP protein is hydroxylated and degraded in an oxygen dependent manner similar to HIF-1α. As with HIF-1α, a basal, as well as, hypoxia-inducible accumulation of ODD-GFP has been reported.

HIF-1 = HIF-1 luciferase reporter assay in U251-HRE cells; format: cell-based, human; settings: 2 mM 2-oxoacid, 250 μM amino acid, 8 h
HPH1, HPH2, and HPH3 = assay: HPH prolyl hydroxylation assay with in vitro translated HPHs (35S-pVHL pulldown); format: biochemical, human; settings: in the absence of ascorbate or other reducing agents
Protocol: as §1
To determine whether HPH activity was directly modulated by pyruvate or oxaloacetate, Pro564 hydroxylation in a biotinylated HIF-1α ODD peptide by in vitro translated HPH1, HPH2, and HPH3 was examined. The ability of streptavidin beads to pull down ^35S-pVHL bound to the biotinylated peptide was used as evidence of HIF-1α ODD peptide hydroxylation. This is the most specific and sensitive assay for HPH activity. […] Such assays can also give high background values in cell extracts.

HIF-1α [8] = settings: requires conversion to pyruvate via lactate dehydrogenase (Lu et al. 2002); cited from earlier work

For `COC(=O)CNC(=O)C(=O)OC` [DMOG, dimethyloxalylglycine], the “HPH activity in extracts of cells treated for four hours” value (HPH [1]; U251, 2 mM pyruvate or oxaloacetate, 1 mM DMOG, no exogenous reductants, ascorbate or iron) was “no loss of HPH activity” and the “hydroxyproline (Pro564) in induced HIF-1α” value (HIF-1α [2]) was “did not contain hydroxyproline”.

With `O=S(=O)([O-])[O-].[Fe+2]` [Fe(II)] the “binding of 35S-HPH homologues to the 2-OG column” value (HPH [3]) was “doubled”, the “HPH activity of extracts from pyruvate or oxaloacetate treated cells, extract supplemented during assay” value (HPH [1]; 100 μM each) was “restored” and the “accumulated (pyruvate-enhanced) HIF-1α after supplementation” value (HIF-1α [4]) was “Fe(II)>Fe(III)”. The “accumulated (pyruvate-enhanced) HIF-1α after supplementation” value (HIF-1α [4]; listed as ferrous iron) was “diminished to a greater extent by ferrous iron than by ferric iron”, the “HIF-1α decay following induction with pyruvate or oxaloacetate, iron in wash” value (HIF-1α [5]) was “enhancement of HIF-1α decay” and the “decay of NO-induced HIF-1α with iron in wash” value (HIF-1α [5]) was “accelerated the decay”. For the same compound, the “decay of accumulated HIF-1α after washing out DFO, iron added” value (HIF-1α [5]) was “promoted decay”, the “HIF-1α induction by pyruvate and oxaloacetate with iron added to cultured cells” value (HIF-1α [6]; U251, Fe(II) 100 μM) was “prevented HIF-1α induction” and the “NO induced HIF-1α accumulation” value (HIF-1α [6]; U251, MEM, DETA-NO 300 μM, ascorbate 100 μM, Fe(II) 100 μM, GSH 5 mM) was “complete inhibition”. The intracellular calcein fluorescence [7] was “decrease in fluorescence”.

In the case of `N[C@@H](CS)C(=O)O` [cysteine], the “basal expression of the HIF-1 regulated genes VEGF and GLUT3” value (VEGF and GLUT3) is reported as “lowered the basal expression”, the “ODD-GFP induction by pyruvate or oxaloacetate” value (ODD-GFP) is reported as “reduced ODD-GFP induction” and the “HRE-luciferase activity induced by pyruvate or oxaloacetate” value (HIF-1) is reported as “lowered HRE-luciferase activity”. For the same compound, the “stimulation of HIF-1α ODD hydroxylation” value (HPH1, HPH2, and HPH3) was “dose dependently stimulate HIF-1α ODD hydroxylation”, the “HIF-1α accumulation by hypoxia or the iron chelator DFO” value (HIF-1α [6]; FIG. 3C, 1% O2 or 150 μM DFO) was “did not affect” and the “inhibition of basal HIF-1α accumulation” value (HIF-1α [6]; U87, Krebs buffer reconstituted with MEM additives at concentration normally present in MEM, four hours) was “key amino acids responsible for inhibiting basal HIF-1α accumulation”. The “inhibition of HIF-1α accumulation, L- vs D-isomers and dimer” value (HIF-1α [6]; U87, four hours, glucose-free Krebs, 1 mM pyruvate or oxaloacetate, 250 μM (FIG. 3C)) was “effective”, the “HIF-1α induction by glucose, pyruvate, and oxaloacetate” value (HIF-1α [6]; all cell lines used in this study (data not shown)) was “lowered HIF-1α induction” and the “inhibition of basal HIF-1α accumulation in complete culture media” value (HIF-1α [6]; amino acid raised to 5× its normal level in MEM) was “likely endogenous inhibitors of basal HIF-1α accumulation”.

With `N[C@@H](Cc1c[nH]cn1)C(=O)O` [histidine] the “basal expression of the HIF-1 regulated genes VEGF and GLUT3” value (VEGF and GLUT3) was “lowered the basal expression” and the “stimulation of HIF-1α ODD hydroxylation” value (HPH1, HPH2, and HPH3) was “dose dependently stimulate HIF-1α ODD hydroxylation”.

For `CC(O)C(=O)O` (stereo not drawn) [lactate], the “HIF-1α accumulation induced by lactate” value (HIF-1α [8]) is listed as “can induce HIF-1α accumulation”.
